Test results published in patent publication US9572890B2, “Oral formulations of mitochondrially-targeted antioxidants and their preparation and use” (MITOTECH SA, priority 2011, dated 2017).

Legend:
[1] = Stability of MTAs in liquid solvents (degradation rate); format: physicochemical
Method: Liquid solvents were also tested for their ability to stabilize representative MTAs SkQ1 and SkQR1. The solvents tested were water solutions of glycerol (10% to 100%), 50% lactulose, and 1,2-propylene glycol (10% to 100%, at 60° C.). Some representative results are shown below (Table 1).

[2] = Stability in dark plastic or glass vials (light sensitivity); format: physicochemical
Description: Accordingly, one of the ways to further improve or increase stability of SkQ liquid compositions during storage and transportation is to protect it from light.

[3] = tested on: human endothelial cells EA.hy926; assay: TNF-α induced death of endothelial cells (MTT test); format: cell-based; conditions: 0.2 nM pre-incubation 4 d; TNF-α 0.25 to 50 ng/ml for 2 d
Method: Human endothelial cell line EA.hy926 (ATCC Collection; catalog number CRL-2922) was used as a model of vascular endothelium. This cell line is similar to primary HUVEC cell line (Edgell et al. (1983) PNAS, 80(12):3734-7; Edgell et al. (1990) In Vitro Cell Dev Biol., 26(12):1167-72) and widely used as a relevant model for inflammation studies (Riesbeck et al. (1998) Clin. Vaccine Immunol., 5:5675-682).
Accordingly, human endothelial cells EA.hy926 were pre-incubated with 0.2 nM SkQR1 or 2 nM SkQ1 solution in Dulbecco's Modified Eagle's Medium (DMEM) supplemented with 10% of fetal serum (Example 1) for 4 d. After that the cells were incubated overnight with fresh DMEM medium with 0.2% of fetal serum. The cells were incubated 2 d with TNF-α (0.25 ng/ml to 50 ng/ml) and cell death was monitored using standard MTT test (Berridge et al. (1996) Biochemica, 4:14-9). The data from this assay is shown as means±S.E. at least for 3 separate experiments.

COc1cc2c(cc1OC)-c1c(CC(=O)OCCCCCCCC3=CC(=O)C(C)=C(C)C3=O)c3ccc(OC)c(OC)c3c[n+]1CC2 [SkQBP1]
Degradation rate, percent per day ([1]; 400 mkM in 50% Glycerol): 0.08 percent per day

CC/N=c1/cc2oc3cc(NCC)c(C)cc3c(-c3ccccc3C(=O)OCCCCCCCCCCC3=CC(=O)C(C)=C(C)C3=O)c-2cc1C [SkQR1]
stability [2]: significantly increased | Degradation rate, percent per day ([1]; 100 mkM in 10% 1,2-propylene glycol, at 60° C.): 6.19 percent per day | Degradation rate, percent per day ([1]; 100 mkM in 20% 1,2-propylene glycol, at 60° C.): 0.34 percent per day | Degradation rate, percent per day ([1]; 100 mkM in 30% 1,2-propylene glycol, at 60° C.): 0.32 percent per day | Degradation rate, percent per day ([1]; 100 mkM in 40% 1,2-propylene glycol, at 60° C.): 0.06 percent per day | Degradation rate, percent per day ([1]; 100 mkM in 50% 1,2-propylene glycol, at 60° C.): <0.01 percent per day | Degradation rate, percent per day ([1]; 100 mkM in 60% 1,2-propylene glycol, at 60° C.): <0.01 percent per day | Degradation rate, percent per day ([1]; 100 mkM in 70% 1,2-propylene glycol, at 60° C.): 0.05 percent per day | Degradation rate, percent per day ([1]; 100 mkM in 80% 1,2-propylene glycol, at 60° C.): 0.23 percent per day | Degradation rate, percent per day ([1]; 100 mkM in 90% 1,2-propylene glycol, at 60° C.): 0.30 percent per day | Degradation rate, percent per day ([1]; 100 mkM in 100% 1,2-propylene glycol, at 60° C.): 0.23 percent per day | Degradation rate, percent per day ([1]; 140 mkM in 50% Glycerol): 0.7 percent per day | cell death compared to control without MTA [3]: greatly reduced
